Assay results published in patent US7259293B2, “Expression of eukaryotic peptides in plant plastids” (priority 1998, dated 2007).

Legend:
[1] = tested on: homoplasmic tobacco line 38773-6; assay: In vitro glyphosate tolerance, shoot regeneration from leaf explants, line 38773-6; assay type: cell-based; conditions: tobacco plants expressing EPSPS in plastids (pMON38773)
Description: A transplastomic tobacco line homoplasmic for the construct pMON38773 was tested in vitro to determine the highest level of glyphosate tolerance. Explant tissue was prepared from leaf pieces of nontransgenic wild type tobacco control, Havanna, plants and the homoplasmic tobacco line 38773-6 and cultured for regeneration of shoots on TSO medium (described above) supplemented with glyphosate levels of 50 μM, 75 μM, 100 μM, 150 μM and 200 μM. The number of explants producing shoots was determined at 3 weeks and 6 weeks after explant preparation and culturing on glyphosate containing medium.

[2] = tested on: Wild type tobacco (nontransformed control plants); assay: Whole plant glyphosate spray tolerance, wild type; assay type: in vivo; conditions: concentrations as low as 16 oz/Acre
[3] = tested on: homoplasmic tobacco plants of the line 38773-6; assay: Whole plant glyphosate spray tolerance, line 38773-6; assay type: in vivo
Description: Homoplasmic tobacco plants of the line 38773-6 are sprayed with glyphosate using a track sprayer at concentrations corresponding to 0 oz/acre, 16 oz/acre, 32 oz/acre and 64 oz/acre to test for whole plant tolerance. Plant height was measured before and after spraying with glyphosate. The vegetative injury data was collected two weeks after spraying, while the reproductive injury data was collected at plant maturity.
Tolerance is characterized by the continued growth and greening of tissues sprayed with glyphosate. However, as the concentration of glyphosate applied increased, there was a corresponding increase in the level of vegetative injury.

[4] = tested on: Nb2 cell line; assay: Nb2 cell proliferation bioactivity assay; assay type: cell-based, rat; conditions: 48 hrs incubation, MTS absorbance
Description: Bioactivity of the pH adjusted and centrifuged extract was tested using cells from an Nb2 cell line. These cells proliferate in the presence of growth hormone and other […] type compounds. The assay involves putting various concentrations of growth hormone-containing extract into a 96 well plate. Then a constant amount of cells are added to each well. The plate is incubated for 48 hrs and then a reagent called MTS is added. Metabolizing cells take up the MTS and convert it to a blue colored substance. The more cells there are the more blue color in the well. The blue color is measured using a spectrophotometer. The number of cells should be proportional to the concentration of growth hormone in the media. At some high concentration one expects that the cells will become saturated with growth hormone and that the dose response will level off. At very low hGH concentrations essentially no enhanced growth is seen.
To test this hypothesis in vitro, a rat lymphoma cell line, Nb2, that proliferates in the presence of somatotropin (hGH) and other […] type compounds was employed. Proliferation of this cell line is proportional to the amount of somatotropin in the culture medium, until saturation is reached. The ion exchange column eluate from transplastomic Nt-4838 and Nt-38794 plants or identically treated wild-type plants was added to the Nb2 cell culture medium. As control, E. coli produced, refolded hGH was used.

[5] = in vivo; cited from earlier work

Compound: O=C(O)CNCP(=O)(O)O [Glyphosate, N-phosphonomethylglycine]
- glyphosate level tolerated (shoot regeneration) [1]: at least 200 μM
- susceptibility to glyphosate spray [2]: highly susceptible
- glyphosate concentration tolerated, whole plant spray ([3]; homoplasmic tobacco lines, initial results, vegetative tissue injury): 16 oz/acre
- glyphosate level tolerated, whole plant spray ([3]; subsequent experiments with additional transformed lines): 64 oz/Acre
- glyphosate level with a good level of tolerance, whole plant spray ([3]; transplastomic lines): 32 oz/Acre

Compound: alanine-hST: hGH with alanine N-terminus, from Nt4838 extracts, methionine removed by aminopeptidase
- proliferation of the Nb2 cell line (bioactivity) [4]: also bioactive

Compound: chloroplast derived hGH: human growth hormone expressed in tobacco plastids
- proliferation of the Nb2 cell line (bioactivity) [4]: biologically active
- proliferation of the Nb2 cell line (bioactivity) ([4]; listed as hGH expressed from a plant plastid): sigmoidal shape when graphed as absorbance versus hGH concentration

Compound: recombinant somatotropin: recombinant somatotropin produced in E. coli, N-terminal methionine or phenylalanine (Moore et al. 1988)
- pharmacokinetics [5]: equivalent pharmacokinetics
